Reference: US6469013B2, “Therapeutic compounds” (Parker Hughes Institute, priority 1998, dated 2002)
Read-outs that look alike come from different tables or passages of the source.

Columns and labels:
[1] = tested on: NALM-6 human leukemia cells; assay: Mitochondrial membrane potential (DiIC1, JC-1 flow cytometry); format: cell-based; conditions: for EC50: Homo sapiens, NALM-6
Experimental: Mitochondrial membrane potential (Δψm) was measured using two dyes including a lipophillic cation 5,5′,6,6′-tetrachloro-1,1′,3,3′-tetraethlybenzimidazolylcarbocyanine iodide (JC-1) and a cyanine dye, 1,1′,3,3,3′,3′-hexamethylindodicarbocyanine iodide (DiIC1 (27-29)) obtained from Molecular Probes (Eugene, Oreg.). JC-1 is a monomer at 527 nm after being excited at 490 nm; with polarization of Δψm, J-aggregates are formed that shift emission to 590 nm (30). This can be detected on a flow cytometer by assessing the green signal (at 527 nm) and green-orange signal (at 590 nm) simultaneously, creating an index of the number of cells polarized and depolarized mitochondria. DiIC1, a cyanine dye which is amphioatheic and cationic, concentrates in energized mitochondria and has been used in a variety of studies to measure the mitochondrial membrane potential (Fujii, H., et al., Histochem J. 29: 571-581, 1997; Mancini, M., et al., J. Cell Biol. 138: 449-469, 1997; and Petit, P. X., et al., J. Cell Biol. 130: 157-167, 1995). Cells were also stained with DiIC1 at 40 nM concentration for 30 min in the dark as described for JC-1. The cells were analyzed using a Vantage Becton Dickinson (San Jose, Calif.) cell sorter equipped with HeNe laser with excitation at 635 nm and the fluorescence was collected at 666 nm.
To test the cytotoxicity of compound 6 against JAK-3 expressing human leukemia cells, leukemic cells were exposed to this JAK3 inhibitor and monitored for apoptosis-associated changes in mitochondrial membrane potential (Δψm) and mitochondrial mass using specific fluorescent mitochondrial probes and multiparameter flow cytometry. To measure changes in Δψm, DiIC1 (which accumulates in energized mitochondria) was used, whereas the mitochondrial mass was determined by staining the cells with NAO, a fluorescent dye that binds to the mitochondrial inner membrane independent of energetic state. Treatment of NALM-6 leukemia cells with compound 6 at 7.4 μg/ml (25 μM) to 60 μg/ml (200 μM) for 24 h or 48 h increased the number of depolarized mitochondria in a concentration- and time-dependent manner as determined by flow cytometry using DiIC1 (27-29) (FIG. 7A). […] To further confirm this relative change in Δψm, we used JC-1, a mitochondrial dye, which normally exists in solution as a monomer emitting green fluorescence and assumes a dimeric configuration emitting red fluorescence in a reaction driven by mitochondrial transmembrane potential (Smiley, S. T., et al., Proc. Natl. Acad. Sci. U.S. A. 88: 3671-3675, 1991). Thus, the use of JC-1 allows simultaneous analysis of mitochondrial mass (green fluorescence) and mitochondrial transmembrane potential (red/orange fluorescence). After treatment of NALM-6 cells with compound 6 at increasing concentrations ranging from 25 μM to 200 μM and with increasing duration of exposure of 24 h or 48 h, we observed a progressive dissociation between Δψm and mitochondrial mass, with decrement in JC-1 red/orange fluorescence without a significant corresponding drop in JC-1 green fluorescence (FIG. 7C&D).

NALM-6 (pre-B ALL) = assay: Methylcellulose clonogenic assay; format: cell-based, human
Experimental: The antileukemic activity of compound 6 against clonogenic tumor cells was examined using a methylcellulose colony assay system (Uckun, F. M., et al., J. Exp. Med. 163: 347-368, 1986; Messinger, Y., et al., Clin Cancer Res. 4: 165-70, 1998). In brief, cells (10^5/ml in RPMI-10% FBS) were treated overnight at 37° C. with compound 6 at varying concentrations. After treatment, cells were washed twice, plated at 10^4 or 10^5 cells/ml in RPMI-10% FMS-0.9% methylcellulose in Petri dishes, and cultured for 7 days at 37° C. in a humidified 5% CO2 incubator. Subsequently, leukemic cell (or tumor cell) colonies were enumerated using an inverted phase-contrast microscope. The percent inhibition of colony formation was calculated using the following formula:
% Inhibition=1−mean number of colonies in test culture×100 mean number of colonies in control culture

NOD-scid/scid females = assay: Adoptive transfer of diabetes; format: in vivo, mouse; conditions: 50 mg/kg daily, up to week 5 post transfer
Experimental: Single-cell suspensions of splenic leucocytes pooled from 8-10 diabetic NOD females were prepared by passage through Nitex 110 mesh, and red blood cells were lysed in 10× Gey's solution. Aliquots of 1×10^7 splenocytes were adoptively transferred intravenously into 4-week-old NOD/Lt-scid/scid females (The Jackson Laboratory, Bar Harbor, Me.). […] Mice were monitored for diabetes development by testing urinary glucose every week from second week after the transfer by Chemstrip uGK strips (Boehringer Mannheim, Indianapolis, Ind.). Mice with glycosuria over 500 mg/dl (+++) on consecutive weekly tests were considered diabetic, with the first detection of chronic glycosuria taken as the date of IDDM onset.

C57BL/6 recipients = assay: Syngeneic islet graft function under long-term treatment; format: in vivo, mouse; conditions: 50 mg/kg
Experimental: Mice were fasted for 10 hours, and the glucose solution (1.5 g/kg body weight) was injected i.p. Before and after injection of glucose, blood samples were taken and blood glucose levels were measured (as described above) at 0, 30, 60 and 120 min time points.
The vehicle control—(n=3) and WHI-P131-treated C57BL/6 recipients (n=5) of islet allograft were sacrificed on day 14 post transplantation; Jak3 recipients (n=6) were sacrificed on day 100 post transplantation; the C57BL/6 recipients of syngeneic islets—vehicle control—(n=4) and WHI-P131-treated (n=5) were sacrificed on day 180 post transplantation. Kidneys bearing grafts were removed, fixed in 10% formalin and embedded in paraffin. Serial sections of graft area were cut and stained with hematoxylin and eosin. For insulin staining, sections were stained by immunoperoxidase method using 1:100 dilution of polyclonal guinea pig anti-insulin antibody (Gpx Insulin, Dako, Carpinteria, Calif.) and 1:100 dilution of secondary antibody conjugated to horse radish peroxidase (Guinea Pig Immunoglobulins HRP, Dako, Carpinteria, Calif.). Sections were briefly counterstained with hematoxylin and mounted for light microscopic examination.

## COc1cc2ncnc(Nc3ccc(O)cc3)c2cc1OC [WHI-P131, 4-(4′-hydroxyl-phenyl)-amino-6,7-dimethoxyquinazoline]
[1]; 200 μM × 48 hours
  JC-1 green fluorescence (mitochondrial mass): 99.8%
[1]; 200 μM, 48 hours
  fraction of DiIC1-negative cells with depolarized mitochondria: 81.6%
  fraction of JC-1 red/orange fluorescence-negative cells: 16.9%
[1]; 24 hour treatment, read-out: EC50, depolarization of mitochondria (decreased DiIC1 staining)
  EC50: 79.3 µM
[1]; 24 hour treatment, read-out: EC50, depolarization of mitochondria (decreased JC-1 red/orange fluorescence)
  EC50: 94.2 µM
[1]; 48 hour treatment, read-out: EC50, depolarization of mitochondria (decreased DiIC1 staining)
  EC50: 58.4 µM
[1]; 48 hour treatment, read-out: EC50, depolarization of mitochondria (decreased JC-1 red/orange fluorescence)
  EC50: 50.4 µM
NALM-6 (pre-B ALL); Homo sapiens, NALM-6, 100 μM, 'these leukemia cell lines', read-out: inhibition of in vitro colony formation
  inhibition at 100 µM: > 99%
NALM-6 (pre-B ALL); Homo sapiens, NALM-6, 0.1 μM
  inhibition at 0.1 µM: 0%
NALM-6 (pre-B ALL); Homo sapiens, NALM-6, 1 μM
  inhibition at 1 µM: 0%
NALM-6 (pre-B ALL); Homo sapiens, NALM-6, 10 μM
  inhibition at 10 µM: 33.2%
NALM-6 (pre-B ALL); Homo sapiens, NALM-6, 100 μM, read-out: % Inhibition
  inhibition at 100 µM: > 99.9%
NALM-6 (pre-B ALL); Homo sapiens, NALM-6 cells, read-out: EC50, inhibition of clonogenic growth
  EC50: 24.4 µM
NALM-6 (pre-B ALL); NALM-6, 0.1 μM
  Mean No. of Colonies/10^5 Cells: 2970 (2756, 3184)
NALM-6 (pre-B ALL); NALM-6, 1 μM
  Mean No. of Colonies/10^5 Cells: 3180 (3080, 3136)
NALM-6 (pre-B ALL); NALM-6, 10 μM
  Mean No. of Colonies/10^5 Cells: 1932 (1864, 2000)
NALM-6 (pre-B ALL); NALM-6, 100 μM
  Mean No. of Colonies/10^5 Cells: 2 (2, 2)
NOD-scid/scid females
  diabetic mice post adoptive transfer: 8%
C57BL/6 recipients; day 70
  IPGTT, islet function vs controls: no significant difference in islet function
C57BL/6 recipients; day 70 of treatment
  nonfasting blood glucose: 124.6 ± 10.8 mg/dL
C57BL/6 recipients; day 180
  IPGTT, islet function vs controls: not different
C57BL/6 recipients; day 180, immunohistochemistry
  insulin expression in syngeneic grafts vs vehicle: comparable
C57BL/6 recipients; day 180 post transplantation
  non-fasting blood glucose level: 115.2 ± 9.2 mg/dL
C57BL/6 recipients; entire period of 180 days
  non-fasting blood glucose level vs vehicle control: did not differ
